Assay results from US20110182982A1, “LIPOSOME TREATMENT OF VIRAL INFECTIONS” (University of Oxford, priority 2006, published 2011).

Columns and labels:
Assay in all cases: p24 secretion of HIV-1-infected PBMCs
Type in all cases: cell-based
Conditions in all cases: for % p24 secretion Week 1-rb / % p24 secretion Week 2-rb / % p24 secretion Week 3-rb / % p24 secretion Week 4-rb: treatment removed 2 weeks
HIV-1 isolate: HT92599 = test system: HIV-1 isolate: HT92599
Protocol: (§1) Clearance of HIV-1 primary isolates from infected human cells by NB-DNJ was assessed using phytohemagglutinin (PHA)-activated peripheral blood mononuclear cells (PBMCs) as indicator cells and the determination of p24 antigen production as the end point.
(§2) PBMCs from four normal (uninfected) donors were isolated, pooled, and stimulated with PHA (5 μg/ml) for 48 h followed by PHA plus interleukin-2 (40 U/ml) for 72 h in RPMI 1640 medium containing 10% heat-inactivated fetal bovine serum (FBS), 100 U of penicillin per ml, 100 μg of streptomycin per ml, and 2 mM L-glutamine. All experiments were performed in 96-well microtiter plates. To infect cells, 100 μl of PHA-activated PBMCs (5×10^5/ml) was added to each well, after which an equal volume containing 100 50% tissue culture infective doses (TCID50) of primary isolate stock was added. After an overnight incubation, the cells were washed three times with tissue culture medium, and finally re-suspended in medium containing the appropriate liposome treatment or free NB-DNJ. On day 7, approximately 10-30% of the culture volume containing secreted HIV-1 virions was used to infect naïve PBMCs for a second round of infection and treatment (volume transferred was calculated to be the volume necessary for the untreated control of that isolate to infect naïve cells at a TCID50=100). Rounds of treatment and infection of naïve cells were continued over four weeks, and at every time point cellular supernatant containing secreted virions was isolated and used in capture ELISAs to determine p24 concentration (measure of secretion). Additionally, supernatant isolated at each time point throughout treatment was used to infect naïve PBMCs (TCID50=100) for two weeks with no further treatment, which allowed for the observation of a rebound in viral activity.
(§3) PBMCs infected with 8 primary isolates (listed in Table 3) were incubated in the presence of free NB-DNJ (concentrations ranging 0-1 mM) or liposome-encapsulated NB-DNJ (0-3.75 μM, final lipid concentration of 50 μM).

HIV-1 isolate: 89.6 = test system: HIV-1 isolate: 89.6
Protocol: as §1, §2, §3

HIV-1 isolate: UG92021 = test system: HIV-1 isolate: UG92021
Protocol: as §1, §2, §3

HIV-1 isolate: JR-FL = test system: HIV-1 isolate: JR-FL
Protocol: as §1, §2, §3

[1] = 1 mM free in medium, first week
[2] = Human immunodeficiency virus 1, PBMC, free, three rounds of treatment

With `CCCCN1C[C@H](O)[C@@H](O)[C@H](O)[C@H]1CO` [NB-DNJ, N-butyl-1,5-dideoxy-1,5-imino-D-glucitol] the “reduction in viral secretion” value (HIV-1 isolate: HT92599; [1]) was 50%, the “% p24 secretion Week 1” value (HIV-1 isolate: HT92599; NB-DNJ 250 uM) was 99% and the “% p24 secretion Week 2” value (HIV-1 isolate: HT92599; NB-DNJ 250 uM) was 84%. The “% p24 secretion Week 3” value (HIV-1 isolate: HT92599; NB-DNJ 250 uM) was 88%, the “% p24 secretion Week 4” value (HIV-1 isolate: HT92599; NB-DNJ 250 uM) was 81% and the “% p24 secretion Week 1-rb” value (HIV-1 isolate: HT92599; NB-DNJ 250 uM) was 93%. For the same compound, the “% p24 secretion Week 2-rb” value (HIV-1 isolate: HT92599; NB-DNJ 250 uM) was 99%, the “% p24 secretion Week 3-rb” value (HIV-1 isolate: HT92599; NB-DNJ 250 uM) was 95% and the “% p24 secretion Week 4-rb” value (HIV-1 isolate: HT92599; NB-DNJ 250 uM) was 88%. For the same compound, the “% p24 secretion Week 1” value (HIV-1 isolate: HT92599; NB-DNJ 500 uM) was 53%, the “% p24 secretion Week 2” value (HIV-1 isolate: HT92599; NB-DNJ 500 uM) was 19% and the “% p24 secretion Week 3” value (HIV-1 isolate: HT92599; NB-DNJ 500 uM) was 8%. For the same compound, the “% p24 secretion Week 4” value (HIV-1 isolate: HT92599; NB-DNJ 500 uM) was 1%, the “% p24 secretion Week 1-rb” value (HIV-1 isolate: HT92599; NB-DNJ 500 uM) was 67% and the “% p24 secretion Week 2-rb” value (HIV-1 isolate: HT92599; NB-DNJ 500 uM) was 27%. The “% p24 secretion Week 3-rb” value (HIV-1 isolate: HT92599; NB-DNJ 500 uM) was 17%, the “% p24 secretion Week 4-rb” value (HIV-1 isolate: HT92599; NB-DNJ 500 uM) was 1% and the “% p24 secretion Week 1” value (HIV-1 isolate: HT92599; NB-DNJ 1000 uM) was 55%. The “% p24 secretion Week 2” value (HIV-1 isolate: HT92599; NB-DNJ 1000 uM) was 10%, the “% p24 secretion Week 3” value (HIV-1 isolate: HT92599; NB-DNJ 1000 uM) was 3% and the “% p24 secretion Week 4” value (HIV-1 isolate: HT92599; NB-DNJ 1000 uM) was 0%. For the same compound, the “% p24 secretion Week 1-rb” value (HIV-1 isolate: HT92599; NB-DNJ 1000 uM) was 52%, the “% p24 secretion Week 2-rb” value (HIV-1 isolate: HT92599; NB-DNJ 1000 uM) was 15% and the “% p24 secretion Week 3-rb” value (HIV-1 isolate: HT92599; NB-DNJ 1000 uM) was 6%. The “% p24 secretion Week 4-rb” value (HIV-1 isolate: HT92599; NB-DNJ 1000 uM) was 1%, the “reduction in viral secretion” value (HIV-1 isolate: 89.6; [1]) was 75% and the IC50 (HIV-1 isolate: 89.6; [2]) was 250 µM. For the same compound, the IC90 (HIV-1 isolate: 89.6; [2]) was 375 µM, the “% p24 secretion Week 1” value (HIV-1 isolate: 89.6; NB-DNJ 250 uM) was 98% and the “% p24 secretion Week 2” value (HIV-1 isolate: 89.6; NB-DNJ 250 uM) was 79%. For the same compound, the “% p24 secretion Week 3” value (HIV-1 isolate: 89.6; NB-DNJ 250 uM) was 54%, the “% p24 secretion Week 4” value (HIV-1 isolate: 89.6; NB-DNJ 250 uM) was 59% and the “% p24 secretion Week 1-rb” value (HIV-1 isolate: 89.6; NB-DNJ 250 uM) was 81%. The “% p24 secretion Week 2-rb” value (HIV-1 isolate: 89.6; NB-DNJ 250 uM) was 70%, the “% p24 secretion Week 3-rb” value (HIV-1 isolate: 89.6; NB-DNJ 250 uM) was 73% and the “% p24 secretion Week 4-rb” value (HIV-1 isolate: 89.6; NB-DNJ 250 uM) was 66%. The “% p24 secretion Week 1” value (HIV-1 isolate: 89.6; NB-DNJ 500 uM) was 36%, the “% p24 secretion Week 2” value (HIV-1 isolate: 89.6; NB-DNJ 500 uM) was 16% and the “% p24 secretion Week 3” value (HIV-1 isolate: 89.6; NB-DNJ 500 uM) was 2%. The “% p24 secretion Week 4” value (HIV-1 isolate: 89.6; NB-DNJ 500 uM) was 0%, the “% p24 secretion Week 1-rb” value (HIV-1 isolate: 89.6; NB-DNJ 500 uM) was 35% and the “% p24 secretion Week 2-rb” value (HIV-1 isolate: 89.6; NB-DNJ 500 uM) was 8%. For the same compound, the “% p24 secretion Week 3-rb” value (HIV-1 isolate: 89.6; NB-DNJ 500 uM) was 0%, the “% p24 secretion Week 4-rb” value (HIV-1 isolate: 89.6; NB-DNJ 500 uM) was 0% and the “% p24 secretion Week 1” value (HIV-1 isolate: 89.6; NB-DNJ 1000 uM) was 25%. For the same compound, the “% p24 secretion Week 2” value (HIV-1 isolate: 89.6; NB-DNJ 1000 uM) was 1%, the “% p24 secretion Week 3” value (HIV-1 isolate: 89.6; NB-DNJ 1000 uM) was 1% and the “% p24 secretion Week 4” value (HIV-1 isolate: 89.6; NB-DNJ 1000 uM) was 0%. The “% p24 secretion Week 1-rb” value (HIV-1 isolate: 89.6; NB-DNJ 1000 uM) was 21%, the “% p24 secretion Week 2-rb” value (HIV-1 isolate: 89.6; NB-DNJ 1000 uM) was 0% and the “% p24 secretion Week 3-rb” value (HIV-1 isolate: 89.6; NB-DNJ 1000 uM) was 0%. For the same compound, the “% p24 secretion Week 4-rb” value (HIV-1 isolate: 89.6; NB-DNJ 1000 uM) was 0%, the “% p24 secretion Week 1” value (HIV-1 isolate: UG92021; NB-DNJ 250 uM) was 90% and the “% p24 secretion Week 2” value (HIV-1 isolate: UG92021; NB-DNJ 250 uM) was 83%. The “% p24 secretion Week 3” value (HIV-1 isolate: UG92021; NB-DNJ 250 uM) was 88%, the “% p24 secretion Week 4” value (HIV-1 isolate: UG92021; NB-DNJ 250 uM) was 77% and the “% p24 secretion Week 1-rb” value (HIV-1 isolate: UG92021; NB-DNJ 250 uM) was 110%. For the same compound, the “% p24 secretion Week 2-rb” value (HIV-1 isolate: UG92021; NB-DNJ 250 uM) was 101%, the “% p24 secretion Week 3-rb” value (HIV-1 isolate: UG92021; NB-DNJ 250 uM) was 91% and the “% p24 secretion Week 4-rb” value (HIV-1 isolate: UG92021; NB-DNJ 250 uM) was 85%. For the same compound, the “% p24 secretion Week 1” value (HIV-1 isolate: UG92021; NB-DNJ 500 uM) was 85%, the “% p24 secretion Week 2” value (HIV-1 isolate: UG92021; NB-DNJ 500 uM) was 56% and the “% p24 secretion Week 3” value (HIV-1 isolate: UG92021; NB-DNJ 500 uM) was 23%. The “% p24 secretion Week 4” value (HIV-1 isolate: UG92021; NB-DNJ 500 uM) was 8%, the “% p24 secretion Week 1-rb” value (HIV-1 isolate: UG92021; NB-DNJ 500 uM) was 98% and the “% p24 secretion Week 2-rb” value (HIV-1 isolate: UG92021; NB-DNJ 500 uM) was 62%. The “% p24 secretion Week 3-rb” value (HIV-1 isolate: UG92021; NB-DNJ 500 uM) was 27%, the “% p24 secretion Week 4-rb” value (HIV-1 isolate: UG92021; NB-DNJ 500 uM) was 19% and the “% p24 secretion Week 1” value (HIV-1 isolate: UG92021; NB-DNJ 1000 uM) was 61%. For the same compound, the “% p24 secretion Week 2” value (HIV-1 isolate: UG92021; NB-DNJ 1000 uM) was 21%, the “% p24 secretion Week 3” value (HIV-1 isolate: UG92021; NB-DNJ 1000 uM) was 5% and the “% p24 secretion Week 4” value (HIV-1 isolate: UG92021; NB-DNJ 1000 uM) was 0%. For the same compound, the “% p24 secretion Week 1-rb” value (HIV-1 isolate: UG92021; NB-DNJ 1000 uM) was 72%, the “% p24 secretion Week 2-rb” value (HIV-1 isolate: UG92021; NB-DNJ 1000 uM) was 19% and the “% p24 secretion Week 3-rb” value (HIV-1 isolate: UG92021; NB-DNJ 1000 uM) was 3%. The “% p24 secretion Week 4-rb” value (HIV-1 isolate: UG92021; NB-DNJ 1000 uM) was 0%, the “reduction in viral secretion” value (HIV-1 isolate: JR-FL; [1]) was 50% and the “% p24 secretion Week 1” value (HIV-1 isolate: JR-FL; NB-DNJ 250 uM) was 107%. For the same compound, the “% p24 secretion Week 2” value (HIV-1 isolate: JR-FL; NB-DNJ 250 uM) was 105%, the “% p24 secretion Week 3” value (HIV-1 isolate: JR-FL; NB-DNJ 250 uM) was 89% and the “% p24 secretion Week 4” value (HIV-1 isolate: JR-FL; NB-DNJ 250 uM) was 93%. For the same compound, the “% p24 secretion Week 1-rb” value (HIV-1 isolate: JR-FL; NB-DNJ 250 uM) was 104%, the “% p24 secretion Week 2-rb” value (HIV-1 isolate: JR-FL; NB-DNJ 250 uM) was 101% and the “% p24 secretion Week 3-rb” value (HIV-1 isolate: JR-FL; NB-DNJ 250 uM) was 97%. The “% p24 secretion Week 4-rb” value (HIV-1 isolate: JR-FL; NB-DNJ 250 uM) was 91%, the “% p24 secretion Week 1” value (HIV-1 isolate: JR-FL; NB-DNJ 500 uM) was 64% and the “% p24 secretion Week 2” value (HIV-1 isolate: JR-FL; NB-DNJ 500 uM) was 24%. For the same compound, the “% p24 secretion Week 3” value (HIV-1 isolate: JR-FL; NB-DNJ 500 uM) was 5%, the “% p24 secretion Week 4” value (HIV-1 isolate: JR-FL; NB-DNJ 500 uM) was 0% and the “% p24 secretion Week 1-rb” value (HIV-1 isolate: JR-FL; NB-DNJ 500 uM) was 75%. The “% p24 secretion Week 2-rb” value (HIV-1 isolate: JR-FL; NB-DNJ 500 uM) was 9%, the “% p24 secretion Week 3-rb” value (HIV-1 isolate: JR-FL; NB-DNJ 500 uM) was 4% and the “% p24 secretion Week 4-rb” value (HIV-1 isolate: JR-FL; NB-DNJ 500 uM) was 2%. For the same compound, the “% p24 secretion Week 1” value (HIV-1 isolate: JR-FL; NB-DNJ 1000 uM) was 44%, the “% p24 secretion Week 2” value (HIV-1 isolate: JR-FL; NB-DNJ 1000 uM) was 9% and the “% p24 secretion Week 3” value (HIV-1 isolate: JR-FL; NB-DNJ 1000 uM) was 1%. For the same compound, the “% p24 secretion Week 4” value (HIV-1 isolate: JR-FL; NB-DNJ 1000 uM) was 0%, the “% p24 secretion Week 1-rb” value (HIV-1 isolate: JR-FL; NB-DNJ 1000 uM) was 56% and the “% p24 secretion Week 2-rb” value (HIV-1 isolate: JR-FL; NB-DNJ 1000 uM) was 5%. The “% p24 secretion Week 3-rb” value (HIV-1 isolate: JR-FL; NB-DNJ 1000 uM) was 1% and the “% p24 secretion Week 4-rb” value (HIV-1 isolate: JR-FL; NB-DNJ 1000 uM) was 0%.
